Source: ChEMBL document CHEMBL5244239, “Penicillin binding protein 2a: An overview and a medicinal chemistry perspective” (Eur J Med Chem, 2020)
In brackets after ≈: the same amount, converted by molar mass.

Experiments:
[1] = biological target: T1, MecA (Staphylococcus aureus, UniProt Q7DHH4); assay: Binding affinity to methicillin resistant Staphylococcus aureus PBP2a by MST method
T1 sequence (Q7DHH4 whole entry): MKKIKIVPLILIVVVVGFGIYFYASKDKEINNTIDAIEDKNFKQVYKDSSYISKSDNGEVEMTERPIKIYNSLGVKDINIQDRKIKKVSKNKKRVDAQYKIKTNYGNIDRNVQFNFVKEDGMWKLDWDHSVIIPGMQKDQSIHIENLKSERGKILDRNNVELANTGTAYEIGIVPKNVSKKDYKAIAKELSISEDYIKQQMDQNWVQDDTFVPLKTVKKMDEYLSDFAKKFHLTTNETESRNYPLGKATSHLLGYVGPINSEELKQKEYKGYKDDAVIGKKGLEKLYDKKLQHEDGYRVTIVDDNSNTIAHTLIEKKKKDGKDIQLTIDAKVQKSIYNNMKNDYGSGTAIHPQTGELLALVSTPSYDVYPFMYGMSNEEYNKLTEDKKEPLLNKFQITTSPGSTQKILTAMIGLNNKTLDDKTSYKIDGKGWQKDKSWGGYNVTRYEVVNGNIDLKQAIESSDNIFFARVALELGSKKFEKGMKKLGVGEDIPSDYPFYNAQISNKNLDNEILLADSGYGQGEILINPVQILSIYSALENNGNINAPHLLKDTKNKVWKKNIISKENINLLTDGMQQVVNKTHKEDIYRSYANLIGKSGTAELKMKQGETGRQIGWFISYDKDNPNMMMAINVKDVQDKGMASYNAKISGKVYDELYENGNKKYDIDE

[2] = tested on: Staphylococcus aureus; assay: Antibacterial activity against methicillin resistant Staphylococcus aureus; type: functional
[3] = tested on: Staphylococcus aureus; assay: Antibacterial activity against methicillin resistant Staphylococcus aureus mp 1; type: functional
[4] = tested on: Staphylococcus aureus; assay: Antibacterial activity against methicillin resistant Staphylococcus aureus ATCC 43300; type: functional
[5] = biological target: T1, MecA; assay: Binding affinity to Staphylococcus aureus ATCC 43300 PBP2a
[6] = biological target: T2, Penicillin-binding protein 2x (Streptococcus pneumoniae serotype 4 (strain ATCC BAA-334 / TIGR4), UniProt P14677); assay: Binding affinity to Streptococcus pneumoniae PBP2x
T2 sequence (P14677 whole entry): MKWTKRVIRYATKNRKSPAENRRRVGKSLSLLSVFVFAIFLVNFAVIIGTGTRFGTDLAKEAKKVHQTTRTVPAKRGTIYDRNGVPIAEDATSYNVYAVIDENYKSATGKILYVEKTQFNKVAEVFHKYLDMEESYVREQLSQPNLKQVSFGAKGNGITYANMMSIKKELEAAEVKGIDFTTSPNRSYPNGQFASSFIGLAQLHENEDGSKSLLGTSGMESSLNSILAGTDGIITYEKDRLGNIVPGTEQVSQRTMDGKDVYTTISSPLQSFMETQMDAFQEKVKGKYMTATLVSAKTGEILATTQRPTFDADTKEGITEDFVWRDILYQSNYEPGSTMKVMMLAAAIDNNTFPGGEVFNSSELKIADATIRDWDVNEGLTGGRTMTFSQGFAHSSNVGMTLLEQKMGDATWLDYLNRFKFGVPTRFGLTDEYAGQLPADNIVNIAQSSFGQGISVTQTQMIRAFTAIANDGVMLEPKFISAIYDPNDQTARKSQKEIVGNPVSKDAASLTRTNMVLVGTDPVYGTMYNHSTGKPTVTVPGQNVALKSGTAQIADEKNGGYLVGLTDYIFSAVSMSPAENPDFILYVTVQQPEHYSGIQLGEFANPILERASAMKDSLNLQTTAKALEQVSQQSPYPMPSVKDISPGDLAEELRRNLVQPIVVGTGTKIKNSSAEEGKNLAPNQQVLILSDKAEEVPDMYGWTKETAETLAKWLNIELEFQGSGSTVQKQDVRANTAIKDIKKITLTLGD

[7] = tested on: Staphylococcus aureus; assay: Antibacterial activity against Vancomycin-resistant Staphylococcus aureus 1; type: functional
[8] = tested on: Staphylococcus aureus; assay: Antibacterial activity against methicillin sensitive Staphylococcus aureus NRS70; type: functional
[9] = tested on: Staphylococcus aureus; assay: Antibacterial activity against Vancomycin-resistant Staphylococcus aureus 2; type: functional
[10] = biological target: T3, Penicillin-binding protein 1 (Staphylococcus aureus, UniProt Q53725); assay: Inhibition of Staphylococcus aureus PBP1
T3 sequence (Q53725 whole entry): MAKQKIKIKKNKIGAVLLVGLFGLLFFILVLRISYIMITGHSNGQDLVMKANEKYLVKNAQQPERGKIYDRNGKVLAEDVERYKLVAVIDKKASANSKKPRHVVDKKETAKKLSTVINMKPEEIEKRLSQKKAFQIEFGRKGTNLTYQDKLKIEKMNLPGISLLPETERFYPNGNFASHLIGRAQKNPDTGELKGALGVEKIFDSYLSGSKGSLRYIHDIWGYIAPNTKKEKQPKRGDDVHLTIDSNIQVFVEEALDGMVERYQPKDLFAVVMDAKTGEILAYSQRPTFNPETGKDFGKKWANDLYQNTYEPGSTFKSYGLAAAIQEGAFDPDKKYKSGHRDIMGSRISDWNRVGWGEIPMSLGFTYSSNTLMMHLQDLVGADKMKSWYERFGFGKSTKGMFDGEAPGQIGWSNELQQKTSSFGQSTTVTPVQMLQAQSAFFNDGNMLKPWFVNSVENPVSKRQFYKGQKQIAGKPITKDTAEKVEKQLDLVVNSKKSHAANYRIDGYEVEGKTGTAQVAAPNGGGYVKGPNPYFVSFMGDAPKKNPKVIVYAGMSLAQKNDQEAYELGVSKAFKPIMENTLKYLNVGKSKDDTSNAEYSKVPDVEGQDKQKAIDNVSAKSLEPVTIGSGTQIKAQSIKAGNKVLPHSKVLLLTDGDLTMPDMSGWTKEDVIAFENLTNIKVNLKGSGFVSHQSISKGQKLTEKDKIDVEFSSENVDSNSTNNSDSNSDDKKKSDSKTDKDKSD

[11] = tested on: Staphylococcus aureus; assay: Antibacterial activity against methicillin sensitive Staphylococcus aureus NRS119; type: functional
[12] = tested on: Staphylococcus aureus; assay: Antibacterial activity against methicillin sensitive Staphylococcus aureus NRS128; type: functional
[13] = tested on: Staphylococcus aureus; assay: Antibacterial activity against methicillin sensitive Staphylococcus aureus NRS100; type: functional
[14] = tested on: Staphylococcus aureus; assay: Antibacterial activity against methicillin sensitive Staphylococcus aureus ATCC 29213; type: functional
[15] = tested on: Staphylococcus aureus; assay: Antibacterial activity against methicillin sensitive Staphylococcus aureus NRS120; type: functional
[16] = biological target: T1, MecA; assay: Inhibition of Staphylococcus aureus PBP2a
[17] = tested on: Staphylococcus aureus; assay: Antibacterial activity against methicillin sensitive Staphylococcus aureus NRS123; type: functional
[18] = tested on: Enterococcus faecium; assay: Antibacterial activity against vancomycin-resistant Enterococcus faecium; type: functional
[19] = tested on: Staphylococcus aureus; assay: Potentiation of oxacillin against methicillin resistant Staphylococcus aureus OM505 assessed as fold increase in oxacillin activity; type: functional
[20] = tested on: Staphylococcus aureus; assay: Potentiation of oxacillin against methicillin resistant Staphylococcus aureus OM623 assessed as fold increase in oxacillin activity; type: functional
[21] = tested on: Staphylococcus aureus; assay: Potentiation of oxacillin against methicillin resistant Staphylococcus aureus OM584 assessed as fold increase in oxacillin activity; type: functional
[22] = tested on: Staphylococcus aureus; assay: Potentiation of oxacillin against methicillin resistant Staphylococcus aureus OM481 assessed as fold increase in oxacillin activity; type: functional

`COC(=O)C1=C[C@]2(C)C[C@@]34CC[C@@H]5[C@H](C=CC(=O)C5(C)C)[C@]35OC[C@]14[C@](C)(CC2=O)O5` was tested. Which Kd [1] did it give?
Its Kd is 18.4 µM.

What about the MIC [2] of the same compound?
Its MIC is 32 µg/mL (≈ 75 µM).

How did the MIC [2] turn out when `Nc1nc(/C(=N/O)C(=O)N[C@@H]2C(=O)N3C(C(=O)O)=C(/C=C4\CCN([C@@H]5CCNC5)C4=O)CS[C@H]23)ns1` [CEFTOBIPROLE] was run?
The MIC was 0.5 µg/mL (≈ 0.935 µM).

For `CCCCOc1ccc2cc(S(=O)(=O)Nc3ccccc3C(=O)O)ccc2c1`, which MIC [3] is on record?
Its MIC is 32 µg/mL (≈ 80.1 µM).

What about the MIC [4] of the same compound?
The MIC was 32 µg/mL (≈ 80.1 µM).

And the IC50 [5]?
The IC50 was 97 µM.

What about the IC50 [6] of the same compound?
Its IC50 is 391 µM.

How did the MIC [3] turn out when `CCCOc1cccc(C(=O)Nc2ccc(C)cc2C(=O)O)c1` was run?
Its MIC is 256 µg/mL (≈ 817 µM).

What about the MIC [4] of the same compound?
Its MIC is 256 µg/mL (≈ 817 µM).

And the IC50 [5]?
Its IC50 is 680 µM.

With `CC(=O)/C(=C/c1cn(CC(=O)N2CCCCC2)c2ccccc12)n1cc([N+](=O)[O-])nc1C` as the compound, how does the MIC [2] read?
The MIC was 1 µg/mL (≈ 2.3 µM).

With `CCCOc1cccc(C(=O)Nc2ccccc2C(=O)O)c1` as the compound, how does the MIC [3] read?
Its MIC is 512 µg/mL (≈ 1710 µM).

And the MIC [4]?
Its MIC is 512 µg/mL (≈ 1710 µM).

And the IC50 [5]?
The IC50 was 910 µM.

Which results are given for `N#Cc1ccc(/C=C/c2nc3ccccc3c(=O)n2-c2cccc(C(=O)O)c2)cc1`?
MIC [7]: 2 µg/mL (≈ 5.08 µM); MIC [8]: 2 µg/mL (≈ 5.08 µM); MIC [9]: 2 µg/mL (≈ 5.08 µM); IC50 [10]: 78 µg/mL (≈ 198 µM); MIC [11]: 2 µg/mL (≈ 5.08 µM); MIC [12]: 2 µg/mL (≈ 5.08 µM); MIC [13]: 2 µg/mL (≈ 5.08 µM); MIC [14]: 2 µg/mL (≈ 5.08 µM); MIC [15]: 2 µg/mL (≈ 5.08 µM); IC50 [16]: 356 µM; MIC [17]: 2 µg/mL (≈ 5.08 µM)

Which results are given for `Nc1ccc(-c2nc(-c3ccc(Oc4ccc(C(F)(F)F)cc4)cc3)no2)cc1`?
MIC [2]: 1 µg/mL (≈ 2.52 µM); MIC [18]: 1 µg/mL (≈ 2.52 µM)

For `Oc1ccc(-c2nc(-c3ccc(Oc4ccccc4)cc3)no2)cc1`, which MIC [2] is on record?
The MIC was 1 µg/mL (≈ 3.03 µM).

And the MIC [18]?
Its MIC is 1 µg/mL (≈ 3.03 µM).

With `Oc1ccc(-c2nc(-c3ccc(Oc4ccc(C(F)(F)F)cc4)cc3)no2)cc1` as the compound, how does the MIC [2] read?
The MIC was 1 µg/mL (≈ 2.51 µM).

And the MIC [18]?
The MIC was 1 µg/mL (≈ 2.51 µM).

How did the “fold change (FC)” value [19] turn out when `O=C(O[C@H]1[C@@H]2OC(=O)c3cc(O)c(O)c(O)c3-c3c(cc(O)c(O)c3O)C(=O)OC[C@H]2OC(O)[C@@H]1OC(=O)c1cc(O)c(O)c(O)c1)c1cc(O)c(O)c(O)c1` (stereo not given in full) was run?
The value was 100.

And the “fold change (FC)” value [20]?
Its value is 100.

What about the “fold change (FC)” value [21] of the same compound?
Its value is 100.

What about the “fold change (FC)” value [22] of the same compound?
Its value is 100.
